# Data reported in US6054435A, “6-O-substituted macrolides having antibacterial activity” (priority 1999, dated 2000).
# How the values were obtained:
# Assay in all cases: in vitro antibacterial activity (MIC), agar dilution
# Format in all cases: cell-based
# [1] = test system: Staphylococcus aureus ATCC 6538P; details: organism code AA; BHI agar, 35-37° C., 20 to 24 hours; unit assumed
# Procedure: (§1) Representative compounds of the present invention were assayed in vitro for antibacterial activity as follows: Twelve petri dishes containing successive aqueous dilutions of the test compound mixed with 10 mL of sterilized Brain Heart Infusion (BHI) agar (Difco 0418-01-5) were prepared. Each plate was inoculated with 1:100 (or 1:10 for slow-growing strains, such as Micrococcus and Streptococcus) dilutions of up to 32 different microorganisms, using a Steers replicator block. […] In addition, a control plate, using BHI agar containing no test compound, was prepared and incubated at the beginning and end of each test.
# (§2) An additional plate containing a compound having known susceptibility patterns for the organisms being tested and belonging to the same antibiotic class as the test compound was also prepared and incubated as a further control, as well as to provide test-to-test comparability.
# (§3) After incubation, each plate was visually inspected. The minimum inhibitory concentration (MIC) was defined as the lowest concentration of drug yielding no growth, a slight haze, or sparsely isolated colonies on the inoculum spot as compared to the growth control.
# [2] = test system: Micrococcus luteus ATCC 4698; details: organism code PP; BHI agar, 35-37° C., 20 to 24 hours; unit assumed
# Procedure: as §1, §2, §3
# [3] = test system: Staphylococcus epidermidis 3519; details: organism code HH; BHI agar, 35-37° C., 20 to 24 hours; unit assumed
# Procedure: as §1, §2, §3
# [4] = test system: Streptococcus pyogenes PIU 2548; details: organism code NN; BHI agar, 35-37° C., 20 to 24 hours; unit assumed
# Procedure: as §1, §2, §3
# Escherichia coli SS = details: organism code RR; BHI agar, 35-37° C., 20 to 24 hours; unit assumed
# Procedure: as §1, §2, §3
# [5] = test system: Staphylococcus aureus NCTC10649M; details: organism code EE; BHI agar, 35-37° C., 20 to 24 hours; unit assumed
# Procedure: as §1, §2, §3
# [6] = test system: Streptococcus Pneumonia 5649; details: organism code ZZA; BHI agar, 35-37° C., 20 to 24 hours; unit assumed
# Procedure: as §1, §2, §3
# Candida albicans CCH 442 = details: organism code TT; BHI agar, 35-37° C., 20 to 24 hours; unit assumed
# Procedure: as §1, §2, §3
# [7] = test system: Streptococcus Pneumonia ATCC6303; details: organism code XX; BHI agar, 35-37° C., 20 to 24 hours; unit assumed
# Procedure: as §1, §2, §3
# [8] = test system: Streptococcus agalactiae CMX 508; details: organism code KK; BHI agar, 35-37° C., 20 to 24 hours; unit assumed
# Procedure: as §1, §2, §3
# [9] = test system: Streptococcus Pneumonia 5979; details: organism code ZZ; BHI agar, 35-37° C., 20 to 24 hours; unit assumed
# Procedure: as §1, §2, §3
# [10] = test system: Enterococcus faecium ATCC 8043; details: organism code II; BHI agar, 35-37° C., 20 to 24 hours; unit assumed
# Procedure: as §1, §2, §3
# [11] = test system: Staphylococcus aureus A5177; details: organism code BB; BHI agar, 35-37° C., 20 to 24 hours; unit assumed
# Procedure: as §1, §2, §3
# [12] = test system: Streptococcus bovis A-5169; details: organism code JJ; BHI agar, 35-37° C., 20 to 24 hours; unit assumed
# Procedure: as §1, §2, §3
# Escherichia coli JUHL = details: organism code QQ; BHI agar, 35-37° C., 20 to 24 hours; unit assumed
# Procedure: as §1, §2, §3
# [13] = test system: Streptococcus Pneumonia GYR 1171; details: organism code YY; BHI agar, 35-37° C., 20 to 24 hours; unit assumed
# Procedure: as §1, §2, §3
# [14] = test system: Streptococcus pyogenes EES61; details: organism code LL; BHI agar, 35-37° C., 20 to 24 hours; unit assumed
# Procedure: as §1, §2, §3
# [15] = test system: Staphylococcus aureus A-5278; details: organism code CC; BHI agar, 35-37° C., 20 to 24 hours; unit assumed
# Procedure: as §1, §2, §3
# [16] = test system: Nocardia Asteroides ATCC9970; details: organism code VV; BHI agar, 35-37° C., 20 to 24 hours; unit assumed
# Procedure: as §1, §2, §3
# [17] = test system: Streptococcus pyogenes 930; details: organism code MM; BHI agar, 35-37° C., 20 to 24 hours; unit assumed
# Procedure: as §1, §2, §3
# [18] = test system: Mycobacterium smegmatis ATCC 114; details: organism code UU; BHI agar, 35-37° C., 20 to 24 hours; unit assumed
# Procedure: as §1, §2, §3
# [19] = test system: Staphylococcus aureus 1775; details: organism code GG; BHI agar, 35-37° C., 20 to 24 hours; unit assumed
# Procedure: as §1, §2, §3
# [20] = test system: Haemophilis Influenzae DILL AMP R; details: organism code WW; BHI agar, 35-37° C., 20 to 24 hours; unit assumed
# Procedure: as §1, §2, §3
# [21] = test system: Staphylococcus aureus CMX 553; details: organism code FF; BHI agar, 35-37° C., 20 to 24 hours; unit assumed
# Procedure: as §1, §2, §3
# [22] = test system: Staphylococcus aureus CMX 642A; details: organism code DD; BHI agar, 35-37° C., 20 to 24 hours; unit assumed
# Procedure: as §1, §2, §3
SMILES,MIC [1],MIC [2],MIC [3],MIC [4],MIC (Escherichia coli SS),MIC [5],MIC [6],MIC (Candida albicans CCH 442),MIC [7],MIC [8],MIC [9],MIC [10],MIC [11],MIC [12],MIC (Escherichia coli JUHL),MIC [13],MIC [14],MIC [15],MIC [16],MIC [17],also measured
CC[C@H]1OC(=O)[C@H](C)C(=O)[C@H](C)[C@@H](O[C@@H]2O[C@H](C)C[C@H](N(C)C)[C@H]2O)[C@](C)(OCC#Cc2ccc(-c3ccccn3)s2)C[C@@H](C)C(=O)[C@H](C)[C@H]2NC(=O)O[C@@]21C [Example 1],0.05 µg/mL,0.1 µg/mL,0.1 µg/mL,0.1 µg/mL,0.1 µg/mL,0.1 µg/mL,–,–,–,–,–,–,–,–,–,–,–,–,–,–,–
CC[C@H]1OC(=O)[C@H](C)C(=O)[C@H](C)[C@@H](O[C@@H]2O[C@H](C)C[C@H](N(C)C)[C@H]2O)[C@](C)(OCC#Cc2ccc(-c3cncc(C(=O)NN(C)C)c3)s2)C[C@@H](C)C(=O)[C@H](C)[C@H]2NC(=O)O[C@@]21C [Example 12],0.39 µg/mL,0.39 µg/mL,0.39 µg/mL,0.78 µg/mL,0.78 µg/mL,0.39 µg/mL,1 µg/mL,> 100 µg/mL,0.03 µg/mL,0.05 µg/mL,1 µg/mL,0.02 µg/mL,0.39 µg/mL,0.05 µg/mL,> 100 µg/mL,0.03 µg/mL,0.05 µg/mL,> 100 µg/mL,0.2 µg/mL,50 µg/mL,MIC [18]: 6.2 µg/mL; MIC [19]: > 100 µg/mL; MIC [20]: 16 µg/mL
CC[C@H]1OC(=O)[C@H](C)C(=O)[C@H](C)[C@@H](O[C@@H]2O[C@H](C)C[C@H](N(C)C)[C@H]2O)[C@](C)(OC/C=C/c2ccc(-c3ccncn3)s2)C[C@@H](C)C(=O)[C@H](C)[C@H]2NC(=O)O[C@@]21C [Example 64],0.05 µg/mL,0.2 µg/mL,0.05 µg/mL,0.1 µg/mL,0.39 µg/mL,0.05 µg/mL,0.25 µg/mL,> 100 µg/mL,≤ 0.004 µg/mL,0.02 µg/mL,2 µg/mL,–,0.05 µg/mL,≤ 0.005 µg/mL,50 µg/mL,≤ 0.004 µg/mL,0.01 µg/mL,> 100 µg/mL,0.01 µg/mL,3.1 µg/mL,MIC [18]: 0.78 µg/mL; MIC [19]: > 100 µg/mL; MIC [20]: 2 µg/mL
CC[C@H]1OC(=O)[C@H](C)C(=O)[C@H](C)[C@@H](O[C@@H]2O[C@H](C)C[C@H](N(C)C)[C@H]2O)[C@](C)(OCC#Cc2ccc(-c3cncc(C(=O)N(C)C)c3)s2)C[C@@H](C)C(=O)[C@H](C)[C@H]2NC(=O)O[C@@]21C [Example 11],0.1 µg/mL,0.2 µg/mL,0.2 µg/mL,0.39 µg/mL,0.78 µg/mL,0.2 µg/mL,1 µg/mL,> 100 µg/mL,0.03 µg/mL,0.05 µg/mL,128 µg/mL,0.39 µg/mL,0.2 µg/mL,0.01 µg/mL,> 100 µg/mL,0.03 µg/mL,0.02 µg/mL,> 100 µg/mL,0.2 µg/mL,> 100 µg/mL,MIC [18]: > 12.5 µg/mL; MIC [19]: > 100 µg/mL; MIC [20]: 16 µg/mL
CC[C@H]1OC(=O)[C@H](C)C(=O)[C@H](C)[C@@H](O[C@@H]2O[C@H](C)C[C@H](N(C)C)[C@H]2O)[C@](C)(OCC#Cc2ccc(-c3cccnc3)s2)C[C@@H](C)C(=O)[C@H](C)[C@H]2NC(=O)O[C@@]21C [Example 2],0.05 µg/mL,0.1 µg/mL,0.05 µg/mL,0.1 µg/mL,0.1 µg/mL,0.05 µg/mL,–,–,–,–,–,0.05 µg/mL,0.05 µg/mL,–,–,–,–,–,0.05 µg/mL,–,MIC [21]: 0.05 µg/mL; MIC [22]: 0.05 µg/mL
